The structures appear in SMILES notation.

The subject of assay [1] is αSyn. Kind of assay: Western analyses of αSyn levels in H4 cells. The format is cell-based, human. The settings on record: H4 cells transiently transfected with split Gaussia luciferase tagged αSyn, 150 μM. As to the method: All materials were purchased from Invitrogen (Carlsbad, CA) unless stated otherwise. Cell from a 6 well dish were washed twice with PBS and lysed with 250 μl of RIPA Lysis buffer with protease and phosphatase inhibitors (Sigma, St. Louis, MO). Lysates were incubated on a shaker for 15 minutes at 4° C. and spun down for 15 min. at 10,000 g. Total protein concentrations were determined by BCA assay (Thermo Fisher, Waltham, MA). 1 ml of media was collected and incubated with protease and phosphatase inhibitors and 50 μl of Ni-agarose beads to collect the His-tagged αSyn (Qiagen, Hilden, Germany) for 2 hrs at […]. Beads were centrifuged and washed in PBS. Cell samples and pelleted beads from the media were placed into Bolt LDS (lithium dodecyl sulfate) sample buffer with 20% β-mercaptoethanol and boiled for 15 min. 5-15 μg of sample (cells) and an equivalent fraction of media were electrophoresed on Bolt 4-12% Bis-Tris Plus gels with Bolt MES SDS running buffer and the Precision Plus Protein Dual Color Standards (Biorad, Hercules, CA) molecular weight markers. After electrophoresis, the separated proteins were transferred onto a 0.2 μm pore size PVDF membrane for 90 minutes at 400 mA and 4° C. in Bolt Transfer Buffer using BioRad midi transfer chambers. […] Membranes were scanned and quantitated using the Odyssey CLx Imaging System (LI-COR, Lincoln, NE). […]

Assay [2] concerns the target αSyn (Homo sapiens, UniProt P37840). Kind of assay: Biacore T200 SPR kinetics and affinity to tethered αSyn. The format is binding. Details: made in house; host or cells: E. coli. As to the method:
RU (resonance units) from the Biacore machine are plotted against time. […] 576755 was injected at six concentrations in two-fold dilutions starting at 200 μM in running buffer containing 25 mM TRIS pH 7.4, 100 mM NaCl, 1% DMSO. […] All data were fitted to 1:1 binding model using the T200 software evaluation.
A Biacore Surface Plasmon Resonance (SPR) method was developed to detect binding to αSyn both in a high throughput manner (Biacore 4000 machine) and in a sensitive format (Biacore T200). A dual capture method was developed in which αSyn is captured both by an antibody to the central region of αSyn and by immobilized N-termal His-tagged αSyn. […]
Surface Plasmon Resonance Measurements. […] Time-dependent binding curves were monitored simultaneously. […] The time-dependent binding curves were monitored simultaneously. […]
Affinity constants were determined using the Biacore T200 evaluation software V.1 by curve fitting using a 1:1 binding model. […] The rate of complex formation during fragment injection is calculated according to the equation (2): dR/dt=kaC(Rmax−R)−kdR (1:1 interaction), where R is the SPR signal in response units (RU), C is the concentration of analyte, Rmax is the maximum analyte binding capacity in RU, and dR/dt is the rate of SPR signal change. […]
On the technique in general: Surface plasmon resonance follows binding to a sensor surface in real time, without labels.

Take `CNC(=O)c1cc(O)ccc1N` [Compound 576755, 2-amino-5-hydroxy-N-methylbenzamide]: the “impact on cellular αSyn protein levels” value in the assay on αSyn [1] was “no impact on αSyn levels”. For the same compound, the Kd on αSyn [2] (six concentrations in two-fold dilutions from 200 μM, 25 mM TRIS pH 7.4, 100 mM NaCl, 1% DMSO, read-out: binding affinity for αSyn (kinetics fits, 1:1 binding model)) turned out to be 73 µM. For the same compound, the “binding behaviour (Biacore traces, off rates)” value at αSyn [2] (tethered αSyn) is “well-behaved, robust and reversible binding”.

For the origin of these results see US12553889B2, “Small molecules targeting the intrinsically disordered structural ensemble of α-synuclein protect against diverse α-synuclein mediated dysfunctions” (The Regents of the University of California, priority 2019, dated 2026).
